Experimental data as given in patent US20250268863A1, “DOSING REGIMENS FOR TREATMENT OF PATIENTS WITH LOCALLY ADVANCED SQUAMOUS CELL CARCINOMA” (priority 2019, published 2025).
“Also recorded” adds a separate entry of the source.

Assays:
[1] = tested on: locally advanced squamous cell cancer of the head and neck (LA-SCCHN); test: Double-blind randomised placebo-controlled Phase II study of Debio 1143 + CRT: efficacy; assay type: in vivo, human; conditions: for Locoregional control rate at 18 months after CRT: 200 mg/day days 1-14 q3w + cisplatin CRT, N = 48 (ITT); for complete response / partial response: of 48 patients
Description: 96 patients were randomized 95 were treated.
The primary endpoint to the study was locoregional control rate (LRC) at 18 months after CRT. Key secondary endpoints included PFS, duration of LRC, overall survival, […] and CR at 3 and 6 months after CRT completion.
The main inclusion criteria were as follows: • Previously untreated, inoperable (unresectable) Stage III, Stage IVA, or Stage IVB as per AJCC TNM staging version 7.0 (2010) • LA-SCCHN of the oral cavity, hypopharynx, larynx, or oropharynx (HPV/p16 both negative or positive) • Heavy smoking history (>10 pack-years) • Negative HIV/HBV/HCV • Performance Status by Eastern Cooperative Oncology Group (ECOG)=0 or 1.
The main exclusion criteria were as follows: • Non-compensated liver cirrhosis (Child-Pugh class C) • >75 years • Non-cisplatin eligible.
A multicentre, phase 2, double-blind, randomised, placebo-controlled study was conducted to evaluate the safety and efficacy of oral Debio 1143 at 200 mg/day on Days 1-14 of 21-Day cycles combined with concomitant cisplatin-based chemoradiotherapy in patients with LA-SCCHN. Male and female patients were eligible if they were aged 18 to 75 years with histologically confirmed LA-SCCHN and fulfilled the following criteria: previously untreated, stage III, IVa or IVb (according to the American Joint Committee on Cancer 2010 staging system [AJCC TNM v7.0 2010]) of one or more of the following sites: oral cavity, oropharynx, hypopharynx and larynx and with T 2-4, N0-3, M0 measurable disease according to Response Evaluation Criteria in Solid Tumours (RECIST), version 1⋅1. Patients were to have a smoking history of more than 10 pack-years, and no medical history of hepatitis B or hepatitis C. For patients with oropharyngeal cancer, tumour HPV-status was determined by the presence of p16 using immunohistochemistry. Other inclusion criteria included: Eastern Cooperative Oncology Group (ECOG) performance status of 0 or 1, no clinically significant cardiac disease and no clinically significant hearing impairment that would have contraindicated the use of chemotherapy with HD-cisplatin.
Exclusion criteria included nasopharyngeal, paranasal sinuses, nasal cavity tumours or thyroid cancers, squamous cell cancer involving cervical neck nodes but from unknown primary site, unknown lymph node status, metastatic disease, any prior or current treatment for invasive head and neck cancer of any kind (including, but not limited to, prior tyrosine kinase inhibitors, prior neoadjuvant therapy, prior surgical resection, or use of any investigational agent), weight loss of >10% during the previous month, non-compensated liver cirrhosis, gastro-intestinal disorders that could affect drug absorption, concurrent treatment with any other systemic anticancer therapy or concomitant treatment with any drug on the prohibited medication list, history of uncontrolled or symptomatic angina, arrhythmias, or congestive heart failure, history of another malignancy within the last 5 years with the exception of completely resected basal or squamous cell skin cancer or successfully treated in-situ carcinoma, history of non-invasive lesion or in-situ carcinoma, including in the head and neck region that was successfully treated with surgery, peripheral neuropathy (grade 2 or above), clinical hearing loss, history of allergic reactions to appropriate antiemetics, human immunodeficiency virus infection. The protocol was approved by the institutional review boards or ethics committees of all participating centres. The study was carried out in accordance with the protocol, the principles expressed in the Declaration of Helsinki, and applicable regulatory requirements. All patients provided written informed consent in advance of study-specific procedures. […]

[2] = tested on: locally advanced squamous cell cancer of the head and neck (LA-SCCHN); test: Dose escalation of Debio 1143 with concurrent chemoradiotherapy (MTD determination); assay type: in vivo
Description: Additionally, for each Debio 1143 dose level (DL) and overall, according to variant 1 of this example: • (a) the safety profile of Debio 1143 in combination with concurrent CRT was assessed; • (b) the antitumour activity of the recommended dose (RD) of Debio 1143 in combination with concurrent CRT in the study population was evaluated. • In a variant 2 of this example, the following items (c) to (f) were explored in addition to items (a) and (b) of variant 1: • (c) the pharmacokinetics (PK) of Debio 1143 and cisplatin when administered in combination with radiation therapy, and explore the potential for drug-drug interactions of Debio 1143 in combination with cisplatin was explored; • (d) the pharmacodynamic (PDy) biomarkers of Debio 1143 activity in combination with concurrent CRT were explored; • (e) the PK/PDy, PK/efficacy, PK/safety, PDy/efficacy and PDy/safety relationships and pharmacogenetic (PGx) factors that may affect Debio 1143 PK were explored; and • (f) the pharmacogenomic and tumour PGx factors were explored.
During the screening phase, subjects were evaluated and staged using the American Joint Committee on Cancer (“AJCC”) […] staging system.
Escalating doses of Debio 1143 were added to CRT. […] The starting dose of Debio 1143 in this combination study was 100 mg/day over 14 days every 21 days. […]

[3] = tested on: locally advanced squamous cell cancer of the head and neck (LA-SCCHN); test: Double-blind randomised placebo-controlled Phase II study of Debio 1143 + CRT: safety
Description: A double-blind randomized placebo-controlled Phase II study was conducted. […] All subjects received 100 mg/m^2 cisplatin on day 2 of each three-week cycle (up to three cycles) concomitantly with radiotherapy (RT). The subjects also received standard fractionation RT with 2 Gy/daily on five days/week for seven weeks up to 70 Gy delivered to the gross-tumor volume (GTV) and 50 Gy to eligible lymph nodes loco-regionally.
Conventional fractionated intensity modulated radiotherapy (IMRT) was delivered to the gross tumour volume (GTV, [primary tumour and involved nodes]), to a total dose of 70 Gy in 2 Gy daily fractions, for 5 days per week over 7 weeks. Primary and neck nodal areas with no tumour involvement (elective/prophylactic irradiation areas) received a total dose of 50 Gy. In accordance with the European Society of Medical Oncology guidelines, patients received prophylactic treatment with granisetron or palonosetron, dexamethasone and aprepitant, prior to and after cisplatin to prevent renal damage and emesis.
Medical history and demographics were collected at screening. Physical examination was conducted at screening, on day 1 of each cycle, at the end of study visit, at the safety follow-up visit and at each subsequent efficacy follow-up visit. Adverse events and co-medication were monitored throughout the study from signature of informed consent (28 days prior to the first dose) until 30 days after the last dose of study drug. Adverse events were graded according to Common Terminology Criteria for Adverse Events (NCI CTCAE) version 4⋅03. All information pertaining to unusual manifestations or adverse events was collected by the investigator at each visit. […] Late toxicities were defined in the protocol and monitored throughout the efficacy follow-up period until the end of study visit.

[4] = as of 21 Jul. 2020, median follow-up 33 months
[5] = first tumour evaluation, approximately 11 weeks after chemoradiotherapy
[6] = six months post chemoradiotherapy
[7] = two-year follow-up, data cut off 15 Jul. 2019

With `CN[C@@H](C)C(=O)N[C@H]1CN(C(=O)CC(C)C)CC[C@H]2CC[C@@H](C(=O)NC(c3ccccc3)c3ccccc3)N2C1=O` [Debio 1143, (5S,8S,10aR)—N-benzhydryl-5-[[(2S)-2-(methylamino)propanoyl]amino]-3-(3-methylbutanoyl)-6-oxo-1,2,4,5,8,9,10,10a-octahydropyrrolo[1,2-a][1,5]diazocine-8-carboxamide] the “Locoregional control rate at 18 months after CRT” value [1] was 54%, the “Locoregional control rate at 18 months after CRT” value ([1]; listed as Debio 1143 + CRT) was 54.2% and the “Odds Ratio for locoregional control at 18 months (Debio 1143 vs Placebo)” value ([1]; N = 48 per arm) was 2.69. The “3 years OS rate” value ([1]; as of 21 Jul. 2020) was 66%, the “Kaplan-Meier estimate of locoregional control at 36 months after the end of chemoradiotherapy” value ([1]; as of 21 Jul. 2020) was 78% and the “hazard ratio, duration of locoregional control vs placebo” value ([1]; as of 21 Jul. 2020) was 0.47. For the same molecule, the “median duration of locoregional control” value ([1]; as of 21 Jul. 2020) was “not reached”, the “probability of PFS at 36 months” value ([1]; as of 21 Jul. 2020) was 72% and the “reduction of the risk of disease progression or death vs placebo” value ([1]; as of 21 Jul. 2020) was 66%. For the same molecule, the “hazard ratio, PFS vs placebo” value ([1]; as of 21 Jul. 2020, 36 months of follow up) was 0.34, the “hazard ratio, overall survival vs placebo” value [1, 4] was 0.49 and the “median OS” value [1, 4] was “not reached”. The “reduction of the risk of mortality vs placebo” value [1, 4] was 51%, the median overall survival ([1]; by 24 months) was “not yet reached” and the “Kaplan-Meier estimate of locoregional control at 18 months after the end of chemoradiotherapy” value ([1]; data cut off 15 Jul. 2019) was 78%. For the same molecule, the “hazard ratio, duration of locoregional control vs placebo” value ([1]; data cut off 15 Jul. 2019) was 0.53, the “median duration of locoregional control” value ([1]; data cut off 15 Jul. 2019) was “not reached” and the median progression-free survival ([1]; data cut off 15 Jul. 2019) was “not reached”. For the same molecule, the “proportion of patients progression-free at 24 months” value ([1]; data cut off 15 Jul. 2019) was 72%, the complete response [1, 5] was 35% and the partial response [1, 5] was 27%. The complete response [1, 6] was 52%, the partial response [1, 6] was 15% and the “hazard ratio, overall survival vs placebo” value [1, 7] was 0.65. For the same molecule, the “hazard ratio, progression-free survival vs placebo” value [1, 7] was 0.37, the “efficacy versus CRT+placebo” value ([2]; high risk LA-SCCHN subjects) was “significantly improves efficacy” and the “maximum tolerated dose (MTD)” value ([2]; oral daily for 14 days every three weeks, with cisplatin 100 mg/m^2 and RT 70 Gy) was 200 mg. The patients who died ([3]; data cut off 15 Jul. 2019) was 14 patients, the “grade 3 bilirubin increases” value ([3]; in vivo) was “no grade 3 bilirubin increases” and the “grade 4 transaminase increases” value ([3]; in vivo) was “no grade 4 transaminase increases”. The “patients with alanine aminotransferase increase leading to dose reduction” value ([3]; most common event leading to dose reduction) was 10%, the “patients who discontinued Debio 1143” value ([3]; of 48 patients) was 15% and the “patients with adverse events of at least grade 3” value ([3]; of 48 patients) was 85%. The “patients with grade 1-2 tinnitus” value ([3]; of 48 patients) was 31%, the “patients with grade 4 events” value ([3]; of 48 patients) was 19% and the “patients with grade 5 events” value ([3]; of 48 patients) was “none”. The “patients with serious treatment-emergent adverse events” value ([3]; of 48 patients) was 63%, the “patients with treatment-emergent adverse events leading to dose reductions of Debio 1143” value ([3]; of 48 patients) was 19% and the late toxicities ([3]; onset >60 days after CRT end, vs placebo) was “very similar and not increased; also recorded: late toxicity was balanced”. The “frequency or severity of cisplatin-associated adverse events” value ([3]; renal insufficiency, febrile neutropenia, thrombocytopenia, peripheral sensory neuropathy, severe vomiting, exception grade 1-2 tinnitus) was “did not increase the frequency or severity”, the “overall safety and tolerability of Debio 1143 added to chemoradiotherapy” value ([3]; vs placebo + CRT) was “well tolerated; also recorded: remained unchanged” and the “grade 3 increases in aspartate aminotransferase and alanine aminotransferase” value ([3]; vs placebo group) was “higher”. For the same molecule, the “incidence of grade 3 anaemia” value ([3]; vs placebo group) was “higher incidence” and the “incidence of grade 4 neutropenia” value ([3]; vs placebo group) was “higher incidence”.
